Results on two compounds are retold here after US12565680B2, “Cancer neoantigens and their utilities in cancer vaccines and TCR-based cancer immunotherapy” (THE METHODIST HOSPITAL SYSTEM, priority 2018, dated 2026).

Experiment [1] relates to A2ESO TCR-T cells. As to the method:
Activated human T cells were transduced on day 2 and day 3 with A2ESO TCR viruses that were packaged by PG13-A2ESO TCR clone. […] To investigate the functional change of A2ESO TCR-T cells after 2-PCPA treatment, intracellular staining (ICS) was performed to check the expression of effector cytokines, targeting IL-2, IFN-γ and TNF-α. […] Another key feature of less-differentiated T cell is increased oxidative metabolism and mitochondrial respiratory capacity.

For experiment [2], the system named is A2ESO TCR-transduced CD4^+ T cells. As for the experimental part: It was hypothesized that the improvement killing ability of CD4^+ T cells due to ThPOK knockdown is procedure of T-cell reprogramming via epigenetic regulation. To distinguish how ThPOK reprogrammed CD4^+ T cells to cytolytic CD4^+ T cells, a screening of A2ESO TCR-transduced CD4^+ T cells treated by various epigenetic inhibitors was performed.

In experiment [3] the test system is primary human T cells. To be noted: OKT3 activated T cells, day 12, CD45RO^− CCR7^+ CD62L^+.
Experiment [4] concerns CAR-T cells. The text has this:
(§1) Both CAR and luciferase were transduced into activated T cells and transfer into NSG mice that have been injected with Raji lymphoma cells.

The subject of experiment [5] is Raji lymphoma cells. To be noted: mouse.
Source text: as §1

In experiment [6] the test system is MDA-MB-231 cells expressing HLA-A2 and NY-ESO-1. To be noted: mouse. The text has this: A breast cancer model was established using MDA-MB-231 cells expressing HLA-A2 and NY-ESO-1 antigen in 8 weeks old NOD-scid IL2Rγnull (NSG) mice.
Experiment [7] has as its system CD8^+ T cells isolated from 136 TILs. The experiment can be described thus: T-cell reactivity assay (ELISA): TMGs in MHC-I expressing Cos7 cells. The format is cell-based, human. To be noted: Cos7-A1, Cos7-B8, Cos7-C7 cells. The text has this:
To identify MHC-I neoantigens, MHC-I expressing Cos7 cells were transfected (Cos7-A1, Cos7-B8 and Cos7-C7) cells with 35 TMGs, respectively, followed by adding CD8^+ T cells isolated from 136 TILs. […] To exclude the possibility that other MHC-I and II molecules could also present neoantigens for T cell recognition, fibroblasts were generated from patient #136 tumor samples and used as APCs to express all MHC I and II molecules after IFN-γ pretreatment (FIG. 9C). The IFN-γ—pretreated fibroblasts were electroporated with in IVT mRNA of 136 mel TMGs, and then co-cultured with 136TILs.
(In general: In an ELISA, binding on a coated surface is turned into a signal by an enzyme label.)

Experiment [8] relates to 136TIL. The experiment can be described thus: Intracellular staining of IFN-γ after neoantigen peptide stimulation, 136TIL. Type of experiment: cell-based, human. The text has this:
Among them, MAPK9 and ANKIB1 neoantigen-specific CD4^+ T cells accounted for 14.3% and 5.2% in the total T cell population, which accounted for 58% and 21% in the total tumor-reactive CD4^+ T cell population, respectively (FIG. 11B). By contrast, other neoantigen-specific CD4^+ T cells accounted for only a small percentage of T cells in the total T cell population (FIG. 11A). Since HHAT is only one MHC-I neoantigen, it was shown that HHAT neoantigen-specific CD8^+ T cells accounted for 10.6% in the total T cell population when stimulation with HHAT peptide (FIG. 11A), which accounted for 73% in the total tumor-reactive CD8^+ T cell population (FIG. 11B).
T cells were stimulated by various in vitro methods, such as tumor cells, peptides or DNA encoding neoantigens, etc. and induced to release cytokines. Stimulated T cells were resuspended in 100 μl of Cytofix/Cytoperm solution (BD Biosciences) per well for microwell plates (or 250 μl for tubes) and incubated for 20 min at 4° C. for cell fixation. Fixed cells were permeabilized by washing twice in 1× Perm/Wash buffer (BD Biosciences). Then the fixed/permeabilized cells were thoroughly resuspended in 50 μl of 1× Perm/Wash buffer containing 1 μl of phycoerythrin (PE)-conjugated IFN-γ antibody (Thermo Fisher Scientific) and incubate at 4° C. for 30 min in the dark. After that the cells were washed twice with 1× Perm/Wash buffer and ready for flow cytometric analysis.

As for `NC1CC1c1ccccc1` (stereo not shown) [2-PCPA], the “oxidative metabolism and spare respiratory capacity” value in experiment [1] is “increased oxidative metabolism and elevated spare respiratory capacity (SRC)”. Further, the “Tscm and Tcm percentages in A2ESO TCR-T cells” value in experiment [1] (8 uM) was “increased both Tscm and Tcm percentages”. The “frequency of A2ESO TCR-T cells with polyfunctional cytokine secretion” value in experiment [1] (ICS for IL-2, IFN-γ and TNF-α) is recorded as “slightly increased”. In addition, the “in vitro survival effect on A2ESO TCR-T cells” value in experiment [1] (IL-2 free condition) is “not seen”. Also, the “in vitro proliferation (CFSE)” value in experiment [1] (stimulation with IL-2 or 231-ESO cells) is on record as “high proliferation potential”. The “cytolytic activity of CD4^+ TCR-T cells” value in experiment [2] is on record as “dramatically enhanced the cytolytic activity”. Besides, in experiment [3], the “population of Tscm” value is “increased the population of Tscm in both CD4^+ and CD8^+ T cells”. In addition, in experiment [4], the “memory phenotype of CAR-T cells” value is “similarly increased the frequencies of less-differentiated memory T cells subsets” and the “metabolic reprogramming effect on CAR-T cells” value is “consistent with its effect on A2ESO TCR-T cells”. For the same compound, the “in vitro survival of CAR-T cells” value in experiment [4] (IL-2 free condition) is given as “survived better”. In experiment [5], the “in vivo proliferation of CAR-T cells (in vivo imaging)” value was “grew faster than control CAR-T cells”. In experiment [6], the “in vivo anti-tumor function of A2ESO TCR-T cells” value was “significantly enhanced”. Besides, the “memory phenotype of T cells after adoptive transfer” value in experiment [6] (in vivo) is “maintained higher frequency of both Tscm and Tcm cells”.

As to TSMLILSNLVFLEGNEVGKTYWNRI [HHAT], the “activation of CD8^+ T cell response” value in experiment [7] is “HLA-A1 restricted neoantigen”. For the same compound, in experiment [8], the “neoantigen-specific CD8^+ T cells in the total T cell population” value is listed as 10.6% and the “share in the total tumor-reactive CD8^+ T cell population” value turned out to be 73%.
